Laboratory results as given in US7767659B2, “Synthesis of naturally occurring ecteinascidins and related compounds” (Pharma Mar, S.A., priority 2002, dated 2010).
Where two headings read alike, the source gives them in different places.

Experiments:
[1] = test system: A-549; assay: cells; conditions: Homo sapiens, A549, 48 h
How it was run: (§1)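 Colorimetric SRB read (490 nm) on triplicate wells after 48 h at 37 °C, 5% CO2. Dose range 10 to 10^−8 μg/ml; 5×10^3 cells/well pre-attached 18 h.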

[2] = test system: HT-29; assay: cells; conditions: Homo sapiens, HT-29, 48 h
How it was run: as §1

[3] = test system: LoVo; assay: cells; conditions: Homo sapiens, LoVo, 48 h; for GI50: read-out: LOVO GI50; for CC50: read-out: LOVO LC50; for IC (TGI): read-out: LOVO TGI
How it was run: as §1

[4] = test system: DU-145; assay: Inhibition of cells growth by colorimetric assay (SRB); conditions: Homo sapiens, DU-145, 48 h; for GI50: read-out: DU145 GI50; for CC50: read-out: DU145 LC50; for IC (TGI): read-out: DU145 TGI
How it was run: as §1

[5] = test system: IGROV-1; assay: as above; conditions: Homo sapiens, IGROV-1, 48 h; for GI50: read-out: IGROV GI50; for CC50: read-out: IGROV LC50; for IC (TGI): read-out: IGROV TGI
How it was run: as §1

[6] = test system: IGROV-ET; assay: as above; conditions: Homo sapiens, 48 h; for GI50: read-out: IGROV-ET GI50; for CC50: read-out: IGROV-ET LC50; for IC (TGI): read-out: IGROV-ET TGI
How it was run: as §1

[7] = test system: K-562; assay: as above; conditions: Homo sapiens, K562, 48 h; for GI50: read-out: K562 GI50; for CC50: read-out: K562 LC50; for IC (TGI): read-out: K562 TGI
How it was run: as §1

[8] = test system: LNCaP; assay: as above; conditions: Homo sapiens, LNCaP, 48 h; for GI50: read-out: LNCAP GI50; for CC50: read-out: LNCAP LC50; for IC (TGI): read-out: LNCAP TGI
How it was run: as §1

[9] = test system: LoVo-Dox; assay: as above; conditions: Homo sapiens, 48 h; for GI50: read-out: LOVO-DOX GI50; for IC (TGI): read-out: LOVO-DOX TGI
How it was run: as §1

[10] = test system: PANC-1; assay: as above; conditions: Homo sapiens, PANC-1, 48 h; for GI50: read-out: PANC-1 GI50; for CC50: read-out: PANC-1 LC50; for IC (TGI): read-out: PANC-1 TGI
How it was run: as §1

[11] = test system: SK-MEL-28; assay: as above; conditions: Homo sapiens, SK-MEL-28, 48 h; for GI50: read-out: MEL-28 GI50; for CC50: read-out: MEL-28 LC50; for IC (TGI): read-out: MEL-28 TGI
How it was run: as §1

[12] = test system: SK-OV-3; assay: as above; conditions: for GI50: read-out: SK-OV3 GI50; for SK-OV3 TGI: SRB, 48 hours exposure
How it was run: as §1

[13] = as above; conditions: human
How it was run: as §1

[14] = test system: HMEC1; assay: as above; conditions: for GI50: Homo sapiens, HMEC-1, 48 h
How it was run: as §1

[15] = test system: SK-BR-3; assay: as above; conditions: Homo sapiens, SK-BR-3, 48 h
How it was run: as §1

[16] = H-MEC-1, SRB, 48 hours exposure

`COc1cc2c(cc1O)CCN[C@]21CS[C@@H]2c3c(OC(C)=O)c(C)c4c(c3[C@H](CNC1=O)N1C2[C@H]2c3c(cc(C)c(OC)c3O)C[C@@H]([C@@H]1C#N)N2C)OCO4` (stereo partly drawn) [compound 76] gave a GI50 ([1]; read-out: A549 GI50) of 413 nM, a CC50 ([1]; read-out: A549 LC50) of 4650 nM and an IC (TGI) ([1]; read-out: A549 TGI) of 840 nM. It also gave a GI50 ([2]; read-out: HT29 GI50) of 627 nM, a CC50 ([2]; read-out: HT29 LC50) of 13000 nM and an IC (TGI) ([2]; read-out: HT29 TGI) of 1300 nM. It also gave a GI50 [3] of 274 nM, a CC50 [3] of 1300 nM and an IC (TGI) [3] of 683 nM. It also gave a GI50 [4] of 492 nM, a CC50 [4] of 13000 nM and an IC (TGI) [4] of 1340 nM. For the same compound, the GI50 [5] was 197 nM, the CC50 [5] was 5250 nM and the IC (TGI) [5] was 648 nM. The GI50 [6] was 513 nM, the CC50 [6] was 1300 nM and the IC (TGI) [6] was 924 nM. The GI50 [7] was 26.9 nM, the CC50 [7] was 13000 nM and the IC (TGI) [7] was 130 nM. It also gave a GI50 [8] of 46.6 nM, a CC50 [8] of 257 nM and an IC (TGI) [8] of 80.7 nM. The GI50 [9] was 2660 nM, the CC50 ([9]; read-out: LOVO-DOX LC50) was 13000 nM and the IC (TGI) [9] was 8130 nM. For the same compound, the GI50 [10] was 695 nM, the CC50 [10] was 13000 nM and the IC (TGI) [10] was 4970 nM. For the same compound, the GI50 [11] was 238 nM, the CC50 [11] was 1270 nM and the IC (TGI) [11] was 549 nM. The GI50 ([12]; Homo sapiens, SK-OV-3, 48 h) was 547 nM, the CC50 ([12]; Homo sapiens, SK-OV-3, 48 h, read-out: SK-OV3 LC50) was 13000 nM and the “SK-OV3 TGI” value [12] was 1.90E−06 Molar.
For `COc1cc2c(cc1O)CCN[C@]21CS[C@@H]2c3c(OC(C)=O)c(C)c4c(c3[C@H](COC1=O)N1C2C2N[C@@H](Cc3cc(C)c(OC)c(O)c32)[C@@H]1C#N)OCO4` (stereo partly drawn) [compound 15], the GI50 ([1]; read-out: GI50 A549) was 2 nM, the CC50 ([1]; read-out: LC50 A549) was 176 nM and the IC (TGI) ([1]; read-out: TGI A549) was 7.35 nM. It also gave a GI50 ([2]; read-out: GI50 HT29) of 0.484 nM, a CC50 ([2]; read-out: LC50 HT29) of 3130 nM and an IC (TGI) ([2]; read-out: TGI HT29) of 5.35 nM. For the same compound, the CC50 at 48 h [13] was 4440 nM, the “TGI H-MEC-1” value [14, 16] was 1.32E−08 Molar and the GI50 ([14]; read-out: GI50 H-MEC-1) was 0.556 nM.
Compound `COc1c(C)cc2c(c1O)[C@@H]1C3[C@@H]4SCC(=O)C(=O)NC[C@@H](c5c6c(c(C)c(OC(C)=O)c54)OCO6)N3[C@@H](C#N)[C@H](C2)N1C` (stereo partly drawn) [compound 75] has a GI50 ([1]; read-out: A549 GI50) of 889 nM, a CC50 ([1]; read-out: A549 LC50) of 12700 nM and an IC (TGI) ([1]; read-out: A549 TGI) of 4010 nM. The GI50 ([2]; read-out: HT29 GI50) was 330 nM, the CC50 ([2]; read-out: HT29 LC50) was 16100 nM and the IC (TGI) ([2]; read-out: HT29 TGI) was 933 nM. The CC50 at 48 h [13] was 16100 nM, the “H-MEC-1 TGI” value [14, 16] was 1.64E−06 Molar and the GI50 ([14]; read-out: H-MEC-1 GI50) was 279 nM.
Compound `COc1cc2c(cc1O)CCN[C@]21CS[C@@H]2c3c(OC(C)=O)c(C)c4c(c3[C@H](COC1=O)N1[C@@H]2[C@H]2c3c(cc(C)c(OC)c3O)C[C@@H]([C@@H]1O)N2C)OCO4` [Et-743, ecteinascidin 743, reference compound] has a GI50 ([1]; read-out: A549 GI50) of 2.52 nM, a CC50 ([1]; read-out: A549 LC50) of 12.1 nM and an IC (TGI) ([1]; read-out: A549 TGI) of 5.51 nM. It also gave a GI50 ([2]; read-out: HT29 GI50) of 3.41 nM, a CC50 ([2]; read-out: HT29 LC50) of 13100 nM and an IC (TGI) ([2]; read-out: HT29 TGI) of 11.1 nM. For the same compound, the GI50 [3] was 1.56 nM, the CC50 [3] was 11.4 nM and the IC (TGI) [3] was 4.23 nM. For the same compound, the GI50 [4] was 0.618 nM, the CC50 [4] was 4330 nM and the IC (TGI) [4] was 1.29 nM. The “H-MEC-1 TGI” value [14, 16] was 6.88E−08 Molar, the GI50 ([14]; read-out: H-MEC-1 GI50) was 9.03 nM and the GI50 [5] was 0.579 nM. For the same compound, the CC50 [5] was 10.3 nM, the IC (TGI) [5] was 2.6 nM and the GI50 [6] was 4.29 nM. It also gave a CC50 [6] of 18.6 nM, an IC (TGI) [6] of 7.86 nM and a GI50 [7] of 0.347 nM. It also gave a CC50 [7] of 1.06 nM, an IC (TGI) [7] of 0.605 nM and a GI50 [8] of 0.23 nM. It also gave a CC50 [8] of 1.22 nM, an IC (TGI) [8] of 0.529 nM and a GI50 [9] of 29.5 nM. For the same compound, the IC (TGI) [9] was 110 nM, the GI50 [10] was 1.59 nM and the CC50 [10] was 39.9 nM. It also gave an IC (TGI) [10] of 6.34 nM, a GI50 ([15]; read-out: SK-BR3 GI50) of 0.479 nM and a CC50 ([15]; read-out: SK-BR3 LC50) of 8.57 nM. The IC (TGI) ([15]; read-out: SK-BR3 TGI) was 1.72 nM, the GI50 [11] was 0.742 nM and the CC50 [11] was 11.2 nM. The IC (TGI) [11] was 3.06 nM, the GI50 ([12]; Homo sapiens, SK-OV-3, 48 h) was 1.31 nM and the “SK-OV3 TGI” value [12] was 1.30E−08 Molar.
